The values below come from patent publication US10105344B2, “Methods of reducing blood lactate concentration” (Stokely-Van Camp, Inc., priority 2010, dated 2018).

Structures are written as SMILES.

The subject of one test is trained cyclists. The test is described as follows: Onset of blood lactate accumulation (OBLA) test, incremental cycling exercise. It is filed as in vivo. The protocol:
Two tests were performed to determine whether quercetin lowers blood lactate or improves maximal lactate steady state: a VO2PEAK test and an onset of blood lactate accumulation [OBLA] test. These tests were performed in a laboratory maintained at 20-25° C. and 35-40% relative humidity with the participants exercising on a Velotron bicycle trainer (Velotron Pro, RacerMate Inc, Seattle, Wash.) calibrated according to manufacturer's recommendations. VO2PEAK was determined using an incremental multistage cycling protocol: following a 10-min warm-up at 100 W, participants cycled at 150 W for five minutes then power output was increased by 50 W every three minutes until 250 W after which power output was increased by 25 W every minute until volitional exhaustion. Oxygen consumption (VO2) and carbon dioxide production (VCO2) were computed from expiratory gases collected and analyzed with a MOXUS metabolic cart (AEI Technologies, Pittsburgh, Pa.). OBLA was determined on a second occasion, separated from the measurement of VO2PEAK by at least seven days. The participants exercised for 3.5 minute stages at 55, 60, 65, 70, 75, 80, 85, and 90% VO2PEAK, and 3-mL blood samples were collected during the final 30 sec of each stage for measuring blood lactate concentration, OBLA was determined using curve fitting techniques and expressed as a percentage of VO2PEAK. OBLA was determined before and after 28 days of quercetin supplementation (1000 mg/d) contained in a 2% carbohydrate beverage with electrolytes and vitamins C and B3.

The test system of the next test is C2C12 cells. In words: Muscle cell assay: lactate concentration in C2C12 cells after electrical pulse stimulation. The test is classed as cell-based, Mouse. The protocol: Mouse C2C12 myoblasts are purchased from American Type Culture Collection (ATCC; Manassas, Va.) and grown to 90% confluence in high glucose Dubecco's Modified Eagle media (DMEM) with 10% fetal bovine serum (FBS). Myoblasts from the purchased lot are grown in T75 flasks and subcultured >5 times prior to plating in collagen coated six-well plates for experimentation. To induce myotube differentiation FBS containing media is replaced with 2% horse serum containing media or serum free media for 5-7 days. Myoblasts are grown and myotubes are maintained with or without antibiotics in a 37° C., 5% CO2 incubator. Electrical pulsing is applied to the myotubes using a C-Pace EP Cell Culture Stimulator (IonOptix; Milton, Mass.). […] Immediately prior to stimulation, day old media is removed and replaced with 5 ml of fresh differentiation media. For incubation experiments, differentiated myotubes are pre-treated with quercetin and/or other compounds. Approximately 18 hours prior and again immediately before electrical pulse stimulation, DMEM containing 2% horse serum or serum free media is replaced with the same media containing quercetin or other test compounds at varying concentrations. Samples from media from resting and contracted cells (with and without compound incubation) is analyzed enzymatically for lactate with a modified method of Lowry and Passonneau (A Flexible System of Enzymatic Analysis, pages 194-199, Academic Press, INC. 1972 hereby incorporated by reference in its entirety.) The effect of quercetin on lactate concentration of muscle cells subjected to electrical pulse stimulation as generally described in Example 1 and Example 2 was studied. […] Media was changed every 24 hours. After 48 hours, growth media was replaced with AIM 5 differentiation media which was also changed every 24 hours. […] Lactate concentrations were measured with the Enzychrom L-Lactate Kit as follows. […] The optical density (OD0) was read for time “zero” at 565 nm and OD20 after a […] incubation at room temperature.

For `O=c1c(O)c(-c2ccc(O)c(O)c2)oc2cc(O)cc(O)c12` [quercetin], the “improvement of the % VO2 Peak where the cyclist achieved a blood lactate concentration of 4 mmol” value with trained cyclists (after quercetin administration vs before, FIG. 1) is listed as “about 3%”. In addition, the “% VO2 Peak to achieve a 4 mmol blood lactate concentration” value in the test with trained cyclists (after quercetin administration, about 71% before, FIG. 1) was “about 73%”. Also, the “cycling power output required to elicit a 4 mmol blood lactate” value in the test with trained cyclists (endurance cyclists, after 28 days of quercetin administration (1000 mg/d), 244 W before) came to 250 W. In the test with trained cyclists (endurance cyclists, before vs after 28 days of quercetin administration (1000 mg/d), FIG. 1), the “increase in cycling power output required to elicit a 4 mmol blood lactate” value was 6 watts (W). Moreover, the “day 5 lactate concentration post stimulus” value was “lower day 5 lactate concentration post stimulus” with C2C12 cells (plate C (primed days 3 and 4, quercetin days 3, 4, 5) vs plate A without quercetin, 60 minutes low intensity stimulation (10V/0.5 hz/24 ms), FIG. 5); “lower day 5 lactate concentration post stimulus” in the test with C2C12 cells (plate D (primed days 3 and 4, quercetin days 3, 4, 5) vs plate B without quercetin, 60 minutes high intensity stimulation (10V/4 hz/2 ms), FIG. 6); “lower day 5 lactate concentration post stimulus” in the test on C2C12 cells (plate E (no priming, quercetin day 5 only) vs plate F without quercetin, 60 minutes high intensity stimulation (10V/4 hz/2 ms), FIG. 7).
